Here are results for 18 compounds from patent publication US20100197724A1, “6.5 -PYRROLOPIPERIDINE TACHYKININ RECEPTOR ANTAGONISTS” (priority 2007, published 2010).

The target of the assay is T1, human neurokinin-1 receptor (NK1R) (Homo sapiens, UniProt P25103).
T1 construct: expressed in transfected cells
The assay can be described thus: 125I-substance P binding assay of human NK1R expressed in COS or CHO cells. The conditions noted are these: competition with 125I-substance P. As for the experimental part: Receptor Expression in COS: To express the cloned human neurokinin-1 receptor (NK1R) transiently in COS, the cDNA for the human NK1R was cloned into the expression vector pCDM9 which was derived from pCDM8 (INVITROGEN) by inserting the ampicillin resistance gene (nucleotide 1973 to 2964 from BLUESCRIPT SK+) into the Sac II site. Transfection of 20 ug of the plasmid DNA into 10 million COS cells was achieved by electroporation in 800 ul of transfection buffer (135 mM NaCl, 1.2 mM CaCl2, 1.2 mM MgCl2, 2.4 mM K2HPO4, 0.6 mM KH2PO4, 10 mM glucose, 10 mM HEPES pH 7.4) at 260 V and 950 uF using the IBI GENEZAPPER (IBI, New Haven, Conn.). The cells were incubated in 10% fetal calf serum, 2 mM glutamine, 100 U/ml penicillin-streptomycin, and 90% DMEM media (GIBCO, Grand Island, N.Y.) in 5% CO2 at 37° C. for three days before the binding assay.
Stable Expression in CHO: To establish a stable cell line expressing the cloned human NK1R, the cDNA was subcloned into the vector pRcCMV (INVITROGEN). Transfection of 20 ug of the plasmid DNA into CHO cells was achieved by electroporation in 800 ul of transfection buffer supplemented with 0.625 mg/ml Herring sperm DNA at 300 V and 950 uF using the IBI GENEZAPPER (IBI). The transfected cells were incubated in CHO media [10% fetal calf serum, 100 U/ml penicillin-streptomycin, 2 mM glutamine, 1/500 hypoxanthine-thymidine (ATCC), 90% IMDM media (JRH BIOSCIENCES, Lenexa, Kans.), 0.7 mg/ml G418 (GIBCO)] in 5% CO2 at 37° C. until colonies were visible. Each colony was separated and propagated. The cell clone with the highest number of human NK1R was selected for subsequent applications such as drug screening.
Assay Protocol using COS or CHO: The binding assay of human NK1R expressed in either COS or CHO cells is based on the use of ^125I-substance P (^125I-SP, from DU PONT, Boston, Mass.) as a radioactively labeled ligand which competes with unlabeled substance P or any other ligand for binding to the human NK1R. Monolayer cell cultures of COS or CHO were dissociated by the non-enzymatic solution (SPECIALTY MEDIA, Lavallette, N.J.) and resuspended in appropriate volume of the binding buffer (50 mM Tris pH 7.5, 5 mM MnCl2, 150 mM NaCl, 0.04 mg/ml bacitracin, 0.004 mg/ml leupeptin, 0.2 mg/ml BSA, 0.01 mM phosphoramidon) such that 200 ul of the cell suspension would give rise to about 10,000 cpm of specific ^125I-SP binding (approximately 50,000 to 200,000 cells). In the binding assay, 200 ul of cells were added to a tube containing 20 ul of 1.5 to 2.5 nM of ^125I-SP and 20 ul of unlabeled substance P or any other test compound. The tubes were incubated at 4° C. or at room temperature for 1 hour with gentle shaking. The bound radioactivity was separated from unbound radioactivity by GF/C filter (BRANDEL, Gaithersburg, Md.) which was pre-wetted with 0.1% polyethylenimine. The filter was washed with 3 ml of wash buffer (50 mM Tris pH 7.5, 5 mM MnCl2, 150 mM NaCl) three times and its radioactivity was determined by gamma counter. The activation of phospholipase C by NK1R may also be measured in CHO cells expressing the human NK1R by determining the accumulation of inositol monophosphate which is a degradation product of IP3. CHO cells are seeded in 12-well plate at 250,000 cells per well. After incubating in CHO media for 4 days, cells are loaded with 0.025 uCi/ml of ^3H-myoinositol by overnight incubation. The extracellular radioactivity is removed by washing with phosphate buffered saline. LiCl is added to the well at final concentration of 0.1 mM with or without the test compound, and incubation is continued at 37° C. for […]. Substance P is added to the well at final concentration of 0.3 nM to activate the human NK1R. After 30 min of incubation at 37° C., the media is removed and 0.1 N HCl is added. Each well is sonicated at 4° C. and extracted with CHCl3/methanol (1:1). The aqueous phase is applied to a 1 ml Dowex AG 1X8 ion exchange column. […]

T1 sequence (P25103 whole entry): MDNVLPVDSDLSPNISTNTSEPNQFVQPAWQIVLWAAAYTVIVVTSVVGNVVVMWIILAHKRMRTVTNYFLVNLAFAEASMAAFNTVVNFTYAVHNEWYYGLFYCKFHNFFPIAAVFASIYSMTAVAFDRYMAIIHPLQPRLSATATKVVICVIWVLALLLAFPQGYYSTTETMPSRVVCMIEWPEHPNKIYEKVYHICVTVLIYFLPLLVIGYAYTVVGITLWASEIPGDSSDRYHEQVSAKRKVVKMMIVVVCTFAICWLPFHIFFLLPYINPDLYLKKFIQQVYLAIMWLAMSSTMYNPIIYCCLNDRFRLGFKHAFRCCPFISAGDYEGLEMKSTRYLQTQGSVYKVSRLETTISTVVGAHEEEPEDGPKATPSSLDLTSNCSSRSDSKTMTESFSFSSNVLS

Broadly, the IC50 is the concentration at which inhibition is half-maximal. A high value points to weaker potency. Compound `O=C1C=C(N2C[C@@H]3CCN(C(=O)Cc4cc(C(F)(F)F)cc(C(F)(F)F)c4)[C@H](c4ccc(F)cc4)[C@H]3C2)CC1` (racemic) [Example 1, 3-[(3aSR,4RS,7aSR)-5-{[3,5-bis(trifluoromethyl)phenyl]acetyl}-4-(4-fluorophenyl)octahydro-2H-pyrrolo[3,4-c]pyridin-2-yl]cyclcopent-2-en-1-one] registered a concentration for half-maximal inhibition (IC50) of 1700 pM.
In the case of `CC(C(=O)N1CC[C@@H]2CN(C3=CC(=O)CC3)CC2[C@@H]1c1ccc(F)cc1)c1cc(C(F)(F)F)cc(C(F)(F)F)c1` (mixture of isomers) [Example 2, 3-[(3aSR,4RS,7aSR)-5-{2-[3,5-bis(trifluoromethyl)phenyl]propanoyl}-4-(4-fluorophenyl)octahydro-2H-pyrrolo[3,4-c]pyridin-2-yl]cyclopent-2-en-1-one], the IC50 amounted to 250 pM.
The same measure for `CC(C(=O)N1CC[C@@H]2CN(C3=CC(=O)CC3)CC2[C@@H]1c1ccc(F)cc1)c1cc(C(F)(F)F)cc(C(F)(F)F)c1` (mixture of isomers) [Example 3, 3-[(3aSR,4RS,7aSR)-5-{2-[3,5-bis(trifluoromethyl)phenyl]propanoyl}-4-(4-fluorophenyl)octahydro-2H-pyrrolo[3,4-c]pyridin-2-yl]cyclopent-2-en-1-one]: 12000 pM; for `CC(C)(C(=O)N1CC[C@@H]2CN(C3=CC(=O)CC3)C[C@H]2[C@@H]1c1ccc(F)cc1)c1cc(C(F)(F)F)cc(C(F)(F)F)c1` (racemic) [Example 4]: 170 pM; for `O=C(CN1CCOC1=O)N1C[C@H]2CCN(C(=O)Cc3cc(C(F)(F)F)cc(C(F)(F)F)c3)[C@@H](c3ccc(F)cc3)[C@@H]2C1` (racemic) [Example 5, 3-{2-[(3aSR,4RS,7aSR)-5-{[3,5-bis(trifluoromethyl)phenyl]acetyl}-4-(4-fluorophenyl)octahydro-2H-pyrrolo[3,4-c]pyridin-2-yl]-2-oxoethyl}-1,3-oxazolidin-2-one]: 3500 pM.
Consider `CC(c1cc(C(F)(F)F)cc(C(F)(F)F)c1)N(C)C(=O)N1CC[C@@H]2CN(C(=O)C3CCOCC3)C[C@H]2[C@@H]1c1ccc(F)cc1` (mixture of isomers) [Example 7, (3aSR,4RS,7aSR)-N-{1-[3,5-bis(trifluoromethyl)phenyl]ethyl}-4-(4-fluorophenyl)-N-methyl-2-(tetrahydro-2H-pyran-4-ylcarbonyl)octahydro-5H-pyrrolo[3,4-c]pyridine-5-carboxamide], for which the IC50 stood at 530 pM.
The same measure for `CC(c1cc(C(F)(F)F)cc(C(F)(F)F)c1)N(C)C(=O)N1CC[C@@H]2CN(C3=CC(=O)CC3)CC2[C@@H]1c1ccc(F)cc1` (stereo partly drawn) [Example 6]: 160 pM; for `Cc1ccccc1[C@H]1[C@@H]2CN(Cc3ccccc3)C[C@H]2CCN1C(=O)N(C)[C@H](C)c1cc(C(F)(F)F)cc(C(F)(F)F)c1` [Example 8, (3aS,4R,7aS)-2-benzyl-N-{(1R)-1-[3,5-bis(trifluoromethyl)phenyl]ethyl}-N-methyl-4-(2-methylphenyl)octahydro-5H-pyrrolo[3,4-c]pyridine-5-carboxamide]: 1190 pM; for `Cc1ccccc1[C@H]1[C@@H]2CNC[C@H]2CCN1C(=O)N(C)[C@H](C)c1cc(C(F)(F)F)cc(C(F)(F)F)c1` [Example 9, (3aS,4R,7aS)-N-{(1R)-1-[3,5-bis(trifluoromethyl)phenyl]ethyl}-N-methyl-4-(2-methylphenyl)octahydro-5H-pyrrolo[3,4-c]pyridine-5-carboxamide]: 41 pM.
Compound `Cc1ccccc1[C@H]1[C@@H]2CN(C3=CC(=O)CC3)C[C@H]2CCN1C(=O)N(C)[C@H](C)c1cc(C(F)(F)F)cc(C(F)(F)F)c1` [Example 10, (3aS,4R,7aS)-N-{(1R)-1-[3,5-bis(trifluoromethyl)phenyl]ethyl}-N-methyl-4-(2-methylphenyl)-2-(3-oxocyclopent-1-en-1-yl)octahydro-5H-pyrrolo[3,4-c]-pyridine-5-carboxamide] gave an IC50 of 66 pM.
`Cc1ccccc1[C@H]1[C@@H]2CN(C(N)=O)C[C@H]2CCN1C(=O)N(C)[C@H](C)c1cc(C(F)(F)F)cc(C(F)(F)F)c1` [Example 11, (3aS,4R,7aS)-N^5-{(1R)-1-[3,5-bis(trifluoromethyl)phenyl]ethyl}-N^5-methyl-4-(2-methylphenyl)tetrahydro-1H-pyrrolo[3,4-c]pyridine-2,5(3H,4H)-dicarboxamide] gave a 50% inhibitory concentration (IC50) of 60 pM.
With `Cc1ccccc1[C@H]1C2CN(C3=NC(=O)CO3)C[C@H]2CCN1C(=O)N(C)[C@H](C)c1cc(C(F)(F)F)cc(C(F)(F)F)c1` (stereo partly drawn) [Example 12], the IC50 was determined as 43 pM.
`Cc1ccccc1[C@H]1C2CN(C3=CC(=O)OC3)C[C@H]2CCN1C(=O)N(C)[C@H](C)c1cc(C(F)(F)F)cc(C(F)(F)F)c1` (stereo partly drawn) [Example 13, (3aS,4R aS)-N-{(1R)-1-[3,5-bis(trifluoromethyl)phenyl]ethyl}-N-methyl-4-(2-methylphenyl)-2-(5-oxo-2,5-dihydrofuran-3-yl)octahydro-5H-pyrrolo[3,4-c]pyridine-5-carboxamide]: the IC50 was found to be 83 pM.
For `Cc1ccccc1[C@H]1[C@@H]2CN(C(C)C)C[C@H]2CCN1C(=O)N(C)[C@H](C)c1cc(C(F)(F)F)cc(C(F)(F)F)c1` [Example 14, (3aS,4R,7aS)-N-{(1R)-1-[3,5-bis(trifluoromethyl)phenyl]ethyl}-2-isopropyl-N-methyl-4-(2-methylphenyl)octahydro-5H-pyrrolo[3,4-c]pyridine-5-carboxamide], the IC50 turned out to be 44 pM.
Compound `Cc1ccccc1[C@H]1[C@@H]2CN(CC(N)=O)C[C@H]2CCN1C(=O)N(C)[C@H](C)c1cc(C(F)(F)F)cc(C(F)(F)F)c1` [Example 15, (3aS,4R,7aS)-2-(2-amino-2-oxoethyl)-N-{(1R)-1-[3,5-bis(trifluoromethyl)phenyl]ethyl}-N-methyl-4-(2-methylphenyl)octahydro-5H-pyrrolo[3,4-c]pyridine-5-carboxamide] yielded a half-maximal inhibitory concentration (IC50) of 71 pM.
For `Cc1ccccc1[C@H]1[C@@H]2CN(CC(=O)O)C[C@H]2CCN1C(=O)N(C)[C@H](C)c1cc(C(F)(F)F)cc(C(F)(F)F)c1` [Example 16, [(3aS,4R,7aS)-5-{[{(1R)-1-[3,5-bis(trifluoromethyl)phenyl]ethyl}(methyl)amino]carbonyl}-4-(2-methylphenyl)octahydro-2H-pyrrolo[3,4-c]pyridin-2-yl]acetic acid], the IC50 was determined as 152 pM.
With `Cc1ccccc1[C@H]1[C@@H]2CN(C(=O)[C@H](C)O)C[C@H]2CCN1C(=O)N(C)[C@H](C)c1cc(C(F)(F)F)cc(C(F)(F)F)c1` [Example 17, (3aS,4R,7aS)-N-{(1R)-1-[3,5-bis(trifluoromethyl)phenyl]ethyl}-2-[(2S)-2-hydroxypropanoyl]-N-methyl-4-(2-methylphenyl)octahydro-5H-pyrrolo[3,4-c]pyridine-5-carboxamide], the IC50 stood at 81 pM.
The same measure for `CC(=O)N1CC2[C@H](CCN(C(=O)N(C)[C@H](C)c3cc(C(F)(F)F)cc(C(F)(F)F)c3)[C@H]2c2ccccc2C)C1` (stereo partly drawn) [Example 18, (3aS,4R,7aS)-2-acetyl-N{(1R)-1-[3,5-bis(trifluoromethyl)phenyl]ethyl}-N-methyl-4-(2-methylphenyl)octahydro-5H-pyrrolo[3,4-c]pyridine-5-carboxamide]: 68 pM.
